Assays:
Assay type in all cases: functional
ACHN = experiment: Growth inhibition of human ACHN cells assessed as cell growth at 10 uM after 48 hrs by sulforhodamine B assay; conditions: read-out: Activity
NCI-H522 = experiment: Growth inhibition of human NCI-H522 cells assessed as cell growth at 10 uM after 48 hrs by sulforhodamine B assay; conditions: NCI-H522, 48 h, read-out: Activity
HL-60(TB) = experiment: Growth inhibition of human HL-60(TB) cells assessed as cell growth at 10 uM after 48 hrs by sulforhodamine B assay; conditions: HL-60, 48 h, read-out: Activity
UO-31 = experiment: Growth inhibition of human UO31 cells assessed as cell growth at 10 uM after 48 hrs by sulforhodamine B assay; conditions: UO-31, 48 h, read-out: Activity
SK-OV-3 = experiment: Growth inhibition of human SKOV3 cells assessed as cell growth at 10 uM after 48 hrs by sulforhodamine B assay; conditions: SK-OV-3, 48 h, read-out: Activity
IGROV-1 = experiment: Growth inhibition of human IGROV1 cells assessed as cell growth at 10 uM after 48 hrs by sulforhodamine B assay; conditions: IGROV-1, 48 h, read-out: Activity
OVCAR-4 = experiment: Growth inhibition of human OVCAR4 cells assessed as cell growth at 10 uM after 48 hrs by sulforhodamine B assay; conditions: OVCAR-4, 48 h, read-out: Activity
SK-MEL-28 = experiment: Growth inhibition of human SK-MEL-28 cells assessed as cell growth at 10 uM after 48 hrs by sulforhodamine B assay; conditions: SK-MEL-28, 48 h, read-out: Activity
SF-539 = experiment: Growth inhibition of human SF539 cells assessed as cell growth at 10 uM after 48 hrs by sulforhodamine B assay; conditions: SF-539, 48 h, read-out: Activity
OVCAR-3 = experiment: Growth inhibition of human OVCAR3 cells assessed as cell growth at 10 uM after 48 hrs by sulforhodamine B assay; conditions: OVCAR-3, 48 h, read-out: Activity
[1] = Growth inhibition of human NCI-ADR-RES cells assessed as cell growth at 10 uM after 48 hrs by sulforhodamine B assay; conditions: read-out: Activity
SW-620 = experiment: Growth inhibition of human SW620 cells assessed as cell growth at 10 uM after 48 hrs by sulforhodamine B assay; conditions: SW-620, 48 h, read-out: Activity
UACC-62 = experiment: Growth inhibition of human UACC62 cells assessed as cell growth at 10 uM after 48 hrs by sulforhodamine B assay; conditions: UACC-62, 48 h, read-out: Activity
SNB-19 = experiment: Growth inhibition of human SNB19 cells assessed as cell growth at 10 uM after 48 hrs by sulforhodamine B assay; conditions: SNB-19, 48 h, read-out: Activity
MCF7 = experiment: Growth inhibition of human MCF7 cells assessed as cell growth at 10 uM after 48 hrs by sulforhodamine B assay; conditions: MCF7, 48 h, read-out: Activity
HOP-92 = experiment: Growth inhibition of human HOP92 cells assessed as cell growth at 10 uM after 48 hrs by sulforhodamine B assay; conditions: HOP-92, 48 h, read-out: Activity

Structure (SMILES) | growth at 10 µM (ACHN) [%] | growth at 10 µM (NCI-H522) [%] | growth at 10 µM (HL-60(TB)) [%] | growth at 10 µM (UO-31) [%] | growth at 10 µM (SK-OV-3) [%] | growth at 10 µM (IGROV-1) [%] | growth at 10 µM (OVCAR-4) [%] | growth at 10 µM (SK-MEL-28) [%] | growth at 10 µM (SF-539) [%] | growth at 10 µM (OVCAR-3) [%] | growth at 10 µM [1] [%] | growth at 10 µM (SW-620) [%] | growth at 10 µM (UACC-62) [%] | growth at 10 µM (SNB-19) [%] | growth at 10 µM (MCF7) [%] | growth at 10 µM (HOP-92) [%]
O=C(Nc1cccc(-n2cc(-c3ccncc3)c(-c3ccc(Cl)c(O)c3)n2)c1)c1ccc(Cl)c(C(F)(F)F)c1 | 86.6 | 94.4 | 196 | 81.2 | 102 | 98.4 | 111 | 94.1 | 94.7 | 95.8 | 104 | 112 | 100 | 119 | 93.9 | 
Cc1cc(C(=O)Nc2cccc(-n3cc(-c4ccncc4)c(-c4ccc(Cl)c(O)c4)n3)c2)ccc1Br | 91.8 | 95.2 | 172 | 74.7 | 100 | 101 | 108 | 93.5 | 95.5 | 104 | 99.7 | 125 | 105 | 115 | 85.4 | 97.8
COc1cc(-c2nn(-c3cccc(NC(=O)c4ccc(Br)c(C)c4)c3)cc2-c2ccncc2)ccc1Cl | 70.2 | 45.1 | 114 | 53.8 | 90.8 | 76.2 | 86.2 | 80.2 | 76.8 | 90.9 | 66.5 | 82.7 | 79.9 | 83.6 | 75 | 51.3

Reference: ChEMBL document CHEMBL2440076, “New triarylpyrazoles as broad-spectrum anticancer agents: design, synthesis, and biological evaluation” (Eur J Med Chem, 2013)
